Laboratory results reported in paper PMC12454639, “Direct disassembly of α-syn preformed fibrils into α-syn monomers by an all-D-peptide” (NPJ Parkinson's Disease, 2025).
Square brackets hold non-standard residues; d marks the D form. Peptide text beside a SMILES is read from it.

Test system: recombinant full-length α-syn
Experiment: De novo ThT aggregation screening assay (50 µM α-syn)
Type: biochemical
Method: The Thioflavin T (ThT) assay is commonly used for the visualization of α-syn fibrilization, since the dye ThT is able to bind to the amyloidogenic cross-β-sheet proportions of fibril structures. Recombinant α-syn was thawed on ice and centrifuged for 30 min at 21,000 × g and 4 °C. The concentration of the supernatant was determined as described previously. Lyophilized D-peptides were thawed at RT for 1 h and dissolved in 500 µl PBS pH 7.4. After centrifugation for 30 min at 21,000 × g the supernatant concentration was determined by UV–vis using the corresponding extinction coefficient at A280. All ThT assay experiments were performed at 37 °C with 15 µM ThT and 0.05% sodium azide (w/v) in PBS pH 7.4 if not otherwise stated. ThT fluorescence was monitored with bottom optics at λex = 448 nm and λem = 482 nm in a fluorescence plate reader with orbital averaging on 3 mm (Clariostar or Polarstar Optima, BMG labtech, GE). […]
ThT assay was used for different purposes. […] Lag-time and t½ were calculated as described previously. […]
Monomeric α-syn (Supplementary Fig. 3) was incubated with or without a 3-fold molar excess of the D-peptides. […] The ThT positive aggregation was fitted with a symmetric Boltzmann fit and t ½- and lag-time were calculated accordingly. […] ThT fluorescence progression was measured in a 96-well non-binding half-area with a FLUOStar plate reader at λex = 448 nm and λem = 482 nm. […]

With `CC[C@@H](C)[C@@H](NC(=O)[C@@H](Cc1c[nH]cn1)NC(=O)[C@@H](CCC(=O)O)NC(=O)[C@@H](CCC(N)=O)NC(=O)[C@@H](Cc1c[nH]c2ccccc12)NC(=O)[C@@H](Cc1ccc(O)cc1)NC(=O)[C@H](NC(=O)[C@@H](CCC(=O)O)NC(=O)[C@@H](Cc1c[nH]cn1)NC(=O)[C@H](NC(=O)[C@H]1CCCN1C(=O)[C@@H](CCSC)NC(=O)[C@H](N)CCCCN)[C@H](C)O)[C@H](C)O)C(=O)N[C@H](Cc1c[nH]c2ccccc12)C(=O)N[C@H](Cc1c[nH]cn1)C(=O)N[C@H](C)C(N)=O` [SVD-1] (H-[dK][dM][dP][dT][dH][dE][dT][dY][dW][dQ][dE][dH][dI][dW][dH][dA]-NH2) the “effect on α-syn aggregation, concentration dependency” value (50 µM α-syn with 50, 150 or 250 µM D-peptide, PBS pH 7.4, n = 5) was “most efficient” and the “effect on α-syn aggregation (t½ and lag-time)” value (50 µM α-syn, 3-fold molar excess peptide, PBS pH 7.4, 37 °C, shaking 300 rpm 30 s per cycle, n = 3) was “delayed α-syn aggregation”.
